Assay type in all cases: cell-based
One assay concerns dengue virus (DENV). Description: microbe, parasite or virus in culture. The following applies: Dengue virus, Vero, 120 h, read-out: Percent viral inhibition DENY.
A further assay concerns Marburg virus (MARV). Description: organism not typed. The following applies: Vero, 72 h, read-out: Percent viral inhibition MARV.
The subject of assay [1] is Chikungunya virus (CHIKV). Nature of the assay: microbe, parasite or virus in culture. The following applies: Chikungunya virus, Vero, 48 h, read-out: Percent viral inhibition CHKV.

What is called inhibition is the change of the read-out against control, counted positive when it falls. As for `CS(=O)(=O)CCCN1CCN(c2ccc(Oc3cc(CN4CCC(CCC(=O)O)CC4)cc(-c4cc(Cl)cc(Cl)c4)n3)cn2)CC1` [Example 271, 3-(1-((2-(3,5-dichlorophenyl)-6-((6-(4-(3-(methylsulfonyl)propyl)piperazin-1-yl)pyridin-3-yl)oxy)pyridin-4-yl)methyl)piperidin-4-yl)propanoic acid], the inhibition at 1 µM with dengue virus (DENV) is 0%; with Marburg virus (MARV), 59.7%; in assay [1], 22.5%.

As for `CC(=O)NCC1CCN(Cc2cc(Oc3cnc(N4CCN(CCS(N)(=O)=O)CC4)nc3)nc(-c3cc(Cl)cc(Cl)c3)c2)CC1` [Example 286, N-((1-((2-(3,5-dichlorophenyl)-6-((2-(4-(2-sulfamoylethyl)piperazin-1-yl)pyrimidin-5-yl)oxy)pyridin-4-yl)methyl)piperidin-4-yl)methyl)acetamide], the inhibition at 1 µM in the assay with dengue virus (DENV) amounted to 0%; with Marburg virus (MARV), 19.2%; in assay [1], 0%.

For `O=S(=O)(O)CC1CCN(Cc2cc(Oc3ccc(N4CCNCC4)nc3)nc(-c3cc(Cl)cc(Cl)c3)c2)CC1` [Example 8, (1-((2-(3,5-dichlorophenyl)-6-((6-(piperazin-1-yl)pyridin-3-yl)oxy)pyridin-4-yl)methyl)piperidin-4-yl)methanesulfonic acid], the inhibition at 1 µM with dengue virus (DENV) stood at 14.7%; in the assay with Marburg virus (MARV), 10.9%; in assay [1], 1.77%.

With `O=C(O)CC1CCN(Cc2cc(Oc3cnc(N4CCN(CC5(O)CC5)CC4)nc3)nc(-c3cc(Cl)cc(Cl)c3)c2)CC1` [Example 229, 2-(1-((2-(3,5-dichlorophenyl)-6-((2-(4-((1-hydroxycyclopropyl)methyl)piperazin-1-yl)pyrimidin-5-yl)oxy)pyridin-4-yl)methyl)piperidin-4-yl)acetic acid], the inhibition at 1 µM in the assay on dengue virus (DENV) is 54.8%; in the assay on Marburg virus (MARV) it was 23.7%; in assay [1] it was 43.2%.

Turning to `CC(=O)NCC1CCN(Cc2cc(Oc3ccc(N4CCN(CC5(CO)CC5)CC4)nc3)nc(-c3cc(Cl)cc(Cl)c3)c2)CC1` [Example 34, N-((1-((2-(3,5-dichlorophenyl)-6-((6-(4-((1-(hydroxymethyl)cyclopropyl)methyl)piperazin-1-yl)pyridin-3-yl)oxy)pyridin-4-yl)methyl)piperidin-4-yl)methyl)acetamide], the values for the inhibition at 1 µM (in the assay on dengue virus (DENV); in the assay with Marburg virus (MARV); in assay [1]) were 46.8%, 30.3% and 1.42%, respectively.

On to `NS(=O)(=O)CCC1CCN(Cc2cc(Oc3ccc(N4CCN(CCC(=O)O)CC4)nc3)nc(-c3cc(Cl)cc(Cl)c3)c2)CC1` [Example 277, 3-(4-(5-((6-(3,5-dichlorophenyl)-4-((4-(2-sulfamoylethyl)piperidin-1-yl)methyl)pyridin-2-yl)oxy)pyridin-2-yl)piperazin-1-yl)propanoic acid], for which the inhibition at 1 µM in the assay with dengue virus (DENV) worked out at 21.7%; with Marburg virus (MARV) it was 61.8%; in assay [1], 11.7%.

For the compound `CN1CCCN(c2ccc(Oc3cc(CN4CCC(CC(=O)O)CC4)cc(-c4cc(Cl)cc(Cl)c4)n3)cn2)CC1` [Example 156, 2-(1-((2-(3,5-dichlorophenyl)-6-((6-(4-methyl-1,4-diazepan-1-yl)pyridin-3-yl)oxy)pyridin-4-yl)methyl)piperidin-4-yl)acetic acid], the inhibition at 1 µM is 43.9% in the assay on dengue virus (DENV), 13.2% in the assay on Marburg virus (MARV) and 38.4% in assay [1].

On to `CNC(=O)NCC1CCN(Cc2cc(Oc3cnc(N4CCN(C)CC4)nc3)nc(-c3cc(Cl)cc(Cl)c3)c2)CC1` [Example 70, 1-((1-((2-(3,5-dichlorophenyl)-6-((2-(4-methylpiperazin-1-yl)pyrimidin-5-yl)oxy)pyridin-4-yl)methyl)piperidin-4-yl)methyl)-3-methylurea], for which the inhibition at 1 µM in the assay with dengue virus (DENV) turned out to be 0%; in the assay with Marburg virus (MARV), 5.52%; in assay [1], 0%.

As for `CC(=O)NCC1CCN(Cc2cc(Oc3ccc(NCC(C)(C)N)nc3)cc(-c3cc(Cl)cc(Cl)c3)c2)CC1` [Example 105, N-((1-((5-((6-((2-amino-2-methylpropyl)amino)pyridin-3-yl)oxy)-3′,5′-dichloro-[1,1′-biphenyl]-3-yl)methyl)piperidin-4-yl)methyl)acetamide], the inhibition at 1 µM came out at 19.9% in the assay with dengue virus (DENV), 0% in the assay with Marburg virus (MARV) and 0% in assay [1].

For `CN1CCCN(c2ccc(Oc3cc(CN4CC[C@@H]5[C@H](CC4)[C@H]5C(=O)O)cc(-c4cc(Cl)cc(Cl)c4)n3)nn2)CC1` [Example 362, (1R,7S,8r)-4-((2-(3,5-dichlorophenyl)-6-((6-(4-methyl-1,4-diazepan-1-yl)pyridazin-3-yl)oxy)pyridin-4-yl)methyl)-4-azabicyclo[5.1.0]octane-8-carboxylic acid], the inhibition at 1 µM in the assay on dengue virus (DENV) worked out at 50.2%; in the assay on Marburg virus (MARV), 50.9%; in assay [1] it was 14.9%.

As for `C[C@@H](O)CN1CCN(c2ncc(Oc3cc(CN4CCC(CC(=O)O)CC4)cc(-c4cc(Cl)cc(Cl)c4)n3)cn2)CC1` [Example 298, (R)-2-(1-((2-(3,5-dichlorophenyl)-6-((2-(4-(2-hydroxypropyl)piperazin-1-yl)pyrimidin-5-yl)oxy)pyridin-4-yl)methyl)piperidin-4-yl)acetic acid], the results for the inhibition at 1 µM (in the assay with dengue virus (DENV); with Marburg virus (MARV); in assay [1]) were 57%, 55.1% and 20.7%, respectively.

Consider `CC(=O)NCC1CCN(Cc2cc(Oc3ccc(N4CC[N+](C)(C)CC4)nc3)nc(-c3cc(Cl)cc(Cl)c3)c2)CC1` [Example 181, 4-(5-((4-((4-(acetamidomethyl)piperidin-1-yl)methyl)-6-(3,5-dichlorophenyl)pyridin-2-yl)oxy)pyridin-2-yl)-1,1-dimethylpiperazin-1-ium], for which the values for the inhibition at 1 µM (with dengue virus (DENV); in the assay on Marburg virus (MARV); in assay [1]) were 49.1%, 12.5% and 11.7%, respectively.

Consider `COC(=O)NCC1CCN(Cc2cc(Oc3cnc(N4CC5CCC(C4)N5CCC(=O)O)nc3)nc(-c3cc(Cl)cc(Cl)c3)c2)CC1` [Example 56, 3-(3-(5-((6-(3,5-dichlorophenyl)-4-((4-(((methoxycarbonyl)amino)methyl)piperidin-1-yl)methyl)pyridin-2-yl)oxy)pyrimidin-2-yl)-3,8-diazabicyclo[3.2.1]octan-8-yl) propanoic acid], for which the inhibition at 1 µM with dengue virus (DENV) came to 57.1%; with Marburg virus (MARV), 60.9%; in assay [1] it was 31.3%.

With `CN1C2CC1CN(c1cnc(Oc3cc(CN4CCC(CC(=O)O)CC4)cc(-c4cc(Cl)cc(Cl)c4)n3)cn1)C2` [Example 352, 2-(1-((2-(3,5-dichlorophenyl)-6-((5-(6-methyl-3,6-diazabicyclo[3.1.l]heptan-3-yl)pyrazin-2-yl)oxy)pyridin-4-yl)methyl)piperidin-4-yl)acetic acid], the inhibition at 1 µM in the assay with dengue virus (DENV) was determined as 13.1%; in the assay on Marburg virus (MARV), 47.9%; in assay [1], 31%.

For `CNC(=O)CCN1CCN(c2ncc(Oc3cc(CN4CCC(CNC(C)=O)CC4)cc(-c4cc(Cl)cc(Cl)c4)n3)cn2)CC1` [Example 94, 3-(4-(5-((4-((4-(acetamidomethyl)piperidin-1-yl)methyl)-6-(3,5-dichlorophenyl)pyridin-2-yl)oxy)pyrimidin-2-yl)piperazin-1-yl)-N-methylpropanamide], the inhibition at 1 µM came to 41.5% in the assay with dengue virus (DENV), 66% in the assay on Marburg virus (MARV) and 31.3% in assay [1].

Take `CN1CCN(c2ncc(Oc3cc(CN4CCC(Cc5nnn[nH]5)CC4)cc(-c4cc(Cl)cc(Cl)c4)n3)cn2)CC1` [Example 72, 5-((4-((4-((1H-tetrazol-5-yl)methyl)piperidin-1-yl)methyl)-6-(3,5-dichlorophenyl)pyridin-2-yl)oxy)-2-(4-methylpiperazin-1-yl)pyrimidine]: the inhibition at 1 µM in the assay on dengue virus (DENV) is 11.2%; with Marburg virus (MARV), 55.8%; in assay [1], 33.7%.

On to `CN1CCN(c2ncc(Oc3cc(CN4CCC5(CC4)CN(C(=O)CO)C5)cc(-c4cc(Cl)cc(Cl)c4)n3)cn2)CC1` [Example 135, 1-(7-((2-(3,5-dichlorophenyl)-6-((2-(4-methylpiperazin-1-yl)pyrimidin-5-yl)oxy)pyridin-4-yl)methyl)-2,7-diazaspiro[3.5]nonan-2-yl)-2-hydroxyethanone], for which the inhibition at 1 µM with dengue virus (DENV) was 56.2%; in the assay on Marburg virus (MARV) it was 51.3%; in assay [1], 12.8%.

For `O=C(O)CC1CCN(Cc2cc(Oc3ccc(N4CCCNCC4)nc3)nc(-c3cc(Cl)cc(Cl)c3)c2)CC1` [Example 166, 2-(1-((2-((6-(1,4-diazepan-1-yl)pyridin-3-yl)oxy)-6-(3,5-dichlorophenyl)pyridin-4-yl)methyl)piperidin-4-yl) acetic acid], the inhibition at 1 µM with dengue virus (DENV) came out at 21.3%; in the assay with Marburg virus (MARV), 45%; in assay [1], 35.3%.

With `CC(=O)NCC1CCN(Cc2cc(Oc3cnc(N4CCN(CCC(=O)O)CC4)nc3)nc(-c3cc(Cl)cc(Cl)c3)c2)CC1` [Example 263, 3-(4-(5-((4-((4-(acetamidomethyl)piperidin-1-yl)methyl)-6-(3,5-dichlorophenyl)pyridin-2-yl)oxy)pyrimidin-2-yl)piperazin-1-yl)propanoic acid], the figures for the inhibition at 1 µM (in the assay with dengue virus (DENV); in the assay with Marburg virus (MARV); in assay [1]) were 39.7%, 48.5% and 28.9%, respectively.

Take `CN1CCN(c2ncc(Oc3cc(CN4CC[C@@H]5[C@H](CC4)[C@H]5C(=O)O)cc(-c4cc(Cl)cc(Cl)c4)n3)cn2)CC1` [Example 321, (1R,7S,8r)-4-((2-(3,5-dichlorophenyl)-6-((2-(4-methylpiperazin-1-yl)pyrimidin-5-yl)oxy)pyridin-4-yl)methyl)-4-azabicyclo[5.1.0]octane-8-carboxylic acid]: the inhibition at 1 µM in the assay with dengue virus (DENV) was determined as 27.3%; in the assay with Marburg virus (MARV), 43.4%; in assay [1] it was 23.8%.

(Values after patent US20230011571A1, “SMALL MOLECULE FURIN INHIBITORS FOR TREATING INFECTIOUS DISEASES” (BP Asset V, Inc., priority 2019, published 2023).)
